Source: patent US20230073461A1, “C[…]” (BioNTech SE, priority 2020, published 2023)

How the values were obtained:
[1] = Single dose IV PK, metabolism and excretion of LNP lipids in rats; type: in vivo; conditions: for drop of concentration in liver / drop of concentration in plasma: two weeks
Description: A single dose PK study of ALC-0315 and […] following intravenous (IV) bolus injection of a nanoparticle formulation in rats was conducted to assess the PK and metabolism of lipid excipients ALC-0315 and ALC-0159.
(§1) In vitro metabolism of ALC-0315 and ALC-0159 was evaluated in blood, liver microsomes, S9 fractions, and hepatocytes from mice, rats, monkeys, and humans. In vivo metabolism was examined in rat plasma, urine, faeces, and liver samples from the PK study. […] ALC-0315 and ALC-0159 are apparently metabolised by hydrolytic metabolism of the ester and amide functionalities, respectively, and this hydrolytic metabolism is observed across the species evaluated.

[2] = In vitro metabolism in blood, liver microsomes, S9 fractions, hepatocytes; type: in vitro ADME, mice, rats, monkeys, and humans; conditions: rat samples
Description: as §1

[3] = target: human ACE2 peptidase domain (amino acids 1-615 of human ACE2 with C-terminal His-10 and Avi tags) (human) (UniProt Q9BYF1); test: biolayer interferometry; compared with a literature value for monomeric RBD
[4] = target: human ACE2 peptidase domain (amino acids 1-615 of human ACE2 with C-terminal His-10 and Avi tags) (human) (UniProt Q9BYF1)

Sequence of UniProt Q9BYF1 (Q9BYF1 18-615 limits assumed): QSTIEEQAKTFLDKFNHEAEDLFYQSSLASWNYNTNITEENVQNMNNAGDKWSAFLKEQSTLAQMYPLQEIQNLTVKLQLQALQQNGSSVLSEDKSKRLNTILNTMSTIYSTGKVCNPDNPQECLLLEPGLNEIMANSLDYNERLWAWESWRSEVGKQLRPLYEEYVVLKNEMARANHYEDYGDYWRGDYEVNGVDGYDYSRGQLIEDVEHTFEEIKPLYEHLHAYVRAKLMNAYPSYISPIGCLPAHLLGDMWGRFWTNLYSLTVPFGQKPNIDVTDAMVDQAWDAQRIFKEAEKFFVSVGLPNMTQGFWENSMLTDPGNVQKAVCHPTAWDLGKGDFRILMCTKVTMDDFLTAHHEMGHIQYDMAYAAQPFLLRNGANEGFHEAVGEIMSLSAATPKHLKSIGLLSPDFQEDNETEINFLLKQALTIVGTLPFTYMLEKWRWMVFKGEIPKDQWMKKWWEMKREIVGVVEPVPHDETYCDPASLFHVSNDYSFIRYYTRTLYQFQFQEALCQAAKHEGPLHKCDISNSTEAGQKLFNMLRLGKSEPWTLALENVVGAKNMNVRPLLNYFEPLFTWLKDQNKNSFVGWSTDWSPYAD

Compound	eliminated unchanged in faeces [1]	drop of concentration in liver ([1]; IV bolus of LNP) [fold]	drop of concentration in plasma ([1]; IV bolus of LNP)	half-life ([1]; rat, plasma and liver, IV bolus of LNP, read-out: apparent terminal t½ in plasma and liver) [days]	rate of metabolism in vitro and in vivo [2]	fold of the reported KD of monomeric RBD [3] [fold]	Kd [4] [pM]	apparent terminal t½ in plasma and liver ([1]; IV bolus of LNP) [days]
CCCCCCCCC(CCCCCC)C(=O)OCCCCCCN(CCCCO)CCCCCCOC(=O)C(CCCCCC)CCCCCCCC (stereo not drawn) [ALC-0315, ((4-hydroxybutyl)azanediyl)bis(hexane-6,1-diyl)bis(2-hexyldecanoate)]	little to no unchanged material	~4	approximately 7000 fold	6 to 8	relatively slowly			
RBD-foldon trimer encoded by BNT162b1 (SARS-CoV-2 spike receptor-binding domain fused at its C-termi (other; other documents disagree on this pair)						1000	5	
CCCCCCCCCCCCCCN(CCCCCCCCCCCCCC)C(=O)COCCOCCOCCOCCOCCOCCOCCOCCOCCOCCOCCOCCOCCOCCOCCOCCOCCOCCOCCOCCOCCOCCOCCOCCOCCOCCOCCOCCOCCOCCOCCOCCOCCOCCOCCOCCOCCOCCOCCOCCOCCOCCOCCOCCOCCOC [ALC-0159, 2-[(polyethylene glycol)-2000]-N,N-ditetradecylacetamide]	50%	> 250	approximately 8000 fold		relatively slowly			2 to 3
